Assay results published in patent US20100240764A1, “Use of S-Clenbuterol” (EUCRO EUROPEAN CONTRACT RESEARCH GMBH & CO. KG, priority 2005, published 2010).

Experiments:
[1] = literature, Eur J Pharmacol 446 (2002) 25-36; cited from earlier work
hippocampal neurons [2] = assay: Staurosporine (STS)-induced apoptosis in cultured hippocampal neurons, Hoechst 33258 nuclear staining; assay type: cell-based, rat; conditions: 10 μM enantiomer added before STS 200 nM; apoptotic nuclei quantified 18 h after exposure; vs STS-treated controls (FIG. 1)
Protocol: (§1) Neuronal cultures. Mixed primary cultures of hippocampal neurons and glial cells were prepared from neonatal Fischer 344 rats as described in Brain Research 1717 (1996) 44-54. Experiments were carried out after 10 days in culture. The NMDA antagonist memantine (Merz, Germany) and clenbuterol were applied 1 h or 5 h before exposure of the cells to glutamate (500 μmol/L, 1 h), respectively. For induction of excitotoxic cell death, medium (conditioned medium) was collected and glutamate-containing medium was added, and then exchanged again after 1 h by the conditioned ? enantiomeres were present in the culture medium also during and after exposure to glutamate. For induction of apoptosis, neurons were exposed to staurosporine (STS, 200 nmol/L, Sigma) […]. Cell death was determined by the trypan blue exclusion method or after staining the nuclei with the DNA-binding fluorochrom Hoechst 33258 as in Brain Research 1717 (1996) 44-54 and in STROKE 2004, 35: 1197-1202.
The protective effects of the clenbuterol enantiomers in cultured neurons exposed to STS (200 nM) which induced apoptosis or glutamate (500 μM) which induced ecitotoxic cell death with morphological features of necrosis. The Clenbuterol enantiomeres were added to the culture medium at a concentration of 10 μM h before the onset of apoptotic or excitotoxic stress. […]

hippocampal neurons [3] = assay: Glutamate-induced excitotoxic cell death in cultured hippocampal neurons, trypan blue exclusion; assay type: cell-based, rat; conditions: 10 μM, glutamate 500 μM for 1 h; for protection of neurons against glutamate excitotoxic insult: trypan blue-stained cultures 18 h after exposure (FIG. 2)
Protocol: as §1
The protective effects of the clenbuterol enantiomers in cultured neurons exposed to STS (200 nM) which induced apoptosis or glutamate (500 μM) which induced ecitotoxic cell death with morphological features of necrosis. The Clenbuterol enantiomeres were added to the culture medium at a concentration of 10 μM h before the onset of apoptotic or excitotoxic stress. […] Further, it was investigated whether such differences in the protective effect of the clenbuterol enantiomers could also be observed in a paradigm of necrotic cell death induced by glutamate.

rat uterus = conditions: Clenbuterol isomers; literature; cited from earlier work
[4] = literature, Eur J Pharmacol 117 (1985) 127-129; cited from earlier work

| SMILES | effects in preclinical models of neuroprotection [1] | STS-induced neuronal cell death (apoptotic nuclei) (hippocampal neurons [2]) | protection of neurons against glutamate excitotoxic insult (hippocampal neurons [3]) | relaxant response in rat uterus (rat uterus) | activity in psychopharmacological tests (CNS-effect) [4] | number of trypan blue positive neurons (hippocampal neurons [3]; 18 h after exposure) |
| --- | --- | --- | --- | --- | --- | --- |
| CC(C)(C)NCC(O)c1cc(Cl)c(N)c(Cl)c1 (racemic) [racemic Clenbuterol, Clenbuterol] | positive effects |  |  |  |  |  |
| CC(C)(C)NC[C@H](O)c1cc(Cl)c(N)c(Cl)c1 [R-clenbuterol] |  | did not affect STS-induced apoptosis | did not show any protective effect | shows the effect | based only on the (−)-enantiomer |  |
| CC(C)(C)NC[C@@H](O)c1cc(Cl)c(N)c(Cl)c1 [S-Clenbuterol] |  | significantly attenuated STS-induced neuronal cell death | significantly protected the neurons against the excitotoxic insult | not involved in the effects | did not show any CNS-effect | reduced the number of trypan blue positive neurons to control levels |
